Laboratory results published in US6506746B2, “Method for treating cognitive dysfunction” (Eli Lilly and Company, priority 1997, dated 2003).

Experiments:
[1] = detection of radiolabelled compound in saliva; type: in vivo
Method: For example, in the treatment of adult humans, dosages of from about 0.25 to 50 mg, preferably from 1 to 30 mg, and most preferably 1 to 20 mg per day may be used. A once a day dosage is normally sufficient, although divided doses may be administered. For treatment of cognitive dysfunction, a dose range of from 1 to 30 mg, preferably 1 to 20 mg per day is suitable.

[2] = system: elderly patients with cognitive dysfunction; assay: double-blind multicenter clinical trial in elderly patients with cognitive dysfunction; type: in vivo, human; conditions: 237 elderly patients (>=65 years), versus placebo; BEHAVE-AD, BPRS and CGI rating scales
Method: Changes in behavioral manifestations were measured using the BEHAVE-AD, BPRS, and CGI rating scales, which are known and available to the skilled artisan.

[3] = system: muscarinic cholinergic receptor; conditions: results of pharmacological studies
5-HT1C receptor = target: T1, 5-HT1C receptor (Homo sapiens, UniProt P28335); assay: 5-HT1C receptor activity
T1 sequence (P28335 33-458): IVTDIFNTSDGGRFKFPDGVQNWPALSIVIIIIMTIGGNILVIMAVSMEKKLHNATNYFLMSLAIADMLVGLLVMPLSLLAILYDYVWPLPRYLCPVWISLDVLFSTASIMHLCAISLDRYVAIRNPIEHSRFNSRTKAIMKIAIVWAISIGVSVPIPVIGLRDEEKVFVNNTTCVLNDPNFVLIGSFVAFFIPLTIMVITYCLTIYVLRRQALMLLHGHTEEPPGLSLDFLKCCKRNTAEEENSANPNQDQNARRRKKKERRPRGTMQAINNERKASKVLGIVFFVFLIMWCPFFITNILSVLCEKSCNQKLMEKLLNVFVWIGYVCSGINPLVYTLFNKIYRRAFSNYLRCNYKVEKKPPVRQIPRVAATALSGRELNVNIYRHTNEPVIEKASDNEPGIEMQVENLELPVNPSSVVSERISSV

SMILES	detection in saliva [1]	changes in behavioral manifestations [2]	muscarinic cholinergic receptor activity [3]	activity at the 5-HT1C receptor (5-HT1C receptor)
Cc1cc2c(s1)Nc1ccccc1N=C2N1CCN(C)CC1 [2-methyl-4-(4-methyl-1-piperazinyl)-10H-thieno[2,3-b][1,5]benzodiazepine]	can be detected in the saliva	can be useful for the treatment of behavioral manifestations of cognitive dysfunction	has muscarinic cholinergic receptor activity	
Cc1cc2c(s1)Nc1ccccc1N=C2N1CCN(C)CC1 [anhydrous Form I compound, 2-methyl-4-(4-methyl-1-piperazinyl)-10H-thieno[2,3-b][1,5]benzodiazepine]				active
